According to ChEMBL document CHEMBL1201862, “PubChem BioAssay data set” (2004):
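Where inhibition never reached the appropriate level, the endpoint shown equals the highest concentration tested. Otherwise, values were interpolated linearly from a five-concentration, 48-hour dose response in 96-well plates. GI50 is the concentration that inhibits growth by half.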 Activity calls are given as the source filed them. Cut-off read from the data, not from the text of the source: active = GI50 up to about 1.1 µM and inactive = higher.

Columns and labels:
Experiment in all cases: NCI tumour cell line growth inhibition, 48 h
[1] = test system: LOX IMVI
[2] = test system: MDA-MB-435
[3] = test system: OVCAR-5
[4] = test system: A549
[5] = test system: ACHN
[6] = test system: OVCAR-8
[7] = test system: MCF7
[8] = test system: EKVX
[9] = test system: HCC 2998
[10] = test system: NCI-H226
[11] = test system: IGROV-1
[12] = test system: 786-0
[13] = test system: SK-MEL-28
[14] = test system: NCI-H522
[15] = test system: A498
[16] = test system: SK-OV-3
[17] = test system: UACC-62
[18] = test system: HCT-116
[19] = test system: NCI/ADR-RES
[20] = test system: Malme-3M
[21] = test system: BT-549
[22] = test system: KM12
[23] = test system: NCI-H460
[24] = test system: CCRF-CEM
[25] = test system: RXF 393
[26] = test system: OVCAR-3
[27] = test system: Hs-578T
[28] = test system: SK-MEL-5
[29] = test system: HCT-15
[30] = test system: CAKI-1
[31] = test system: SW-620
[32] = test system: COLO 205
[33] = test system: HOP-62
[34] = test system: HOP-92
[35] = test system: T47D
[36] = test system: SF-295
[37] = test system: SN12C
[38] = test system: OVCAR-4
[39] = test system: RPMI-8226
[40] = test system: M14
[41] = test system: TK-10
[42] = test system: PC-3
[43] = test system: K562
[44] = test system: SNB-19
[45] = test system: SF-268
[46] = test system: MDA-N
[47] = test system: UACC-257
[48] = test system: NCI-H23
[49] = test system: MOLT-4
[50] = test system: MDA-MB-231
[51] = test system: UO-31
[52] = test system: HT-29
[53] = test system: U-251
[54] = test system: DU-145
[55] = test system: HL-60
[56] = test system: SK-MEL-2
[57] = test system: SNB-75
[58] = test system: SF-539

Structure (SMILES): S=C(Nc1ccc2c(c1)Cc1ccccc1-2)Nc1ccc2c(c1)Cc1ccccc1-2
- GI50 [1]: > 100 µM (inactive)
- GI50 [2]: > 100 µM (inactive)
- GI50 [3]: > 100 µM (inactive)
- GI50 [4]: > 100 µM (inactive)
- GI50 [5]: > 100 µM (inactive)
- GI50 [6]: > 100 µM (inactive)
- GI50 [7]: > 100 µM (inactive)
- GI50 [8]: > 100 µM (inactive)
- GI50 [9]: > 100 µM (inactive)
- GI50 [10]: > 100 µM (inactive)
- GI50 [11]: > 100 µM (inactive)
- GI50 [12]: > 100 µM (inactive)
- GI50 [13]: > 100 µM (inactive)
- GI50 [14]: > 100 µM (inactive)
- GI50 [15]: > 100 µM (inactive)
- GI50 [16]: > 100 µM (inactive)
- GI50 [17]: > 100 µM (inactive)
- GI50 [18]: > 100 µM (inactive)
- GI50 [19]: > 100 µM (inactive)
- GI50 [20]: > 100 µM (inactive)
- GI50 [21]: > 100 µM (inactive)
- GI50 [22]: > 100 µM (inactive)
- GI50 [23]: > 100 µM (inactive)
- GI50 [24]: 11.4 µM (inactive)
- GI50 [25]: > 100 µM (inactive)
- GI50 [26]: > 100 µM (inactive)
- GI50 [27]: > 100 µM (inactive)
- GI50 [28]: > 100 µM (inactive)
- GI50 [29]: > 100 µM
- GI50 [30]: > 100 µM (inactive)
- GI50 [31]: > 100 µM (inactive)
- GI50 [32]: > 100 µM (inactive)
- GI50 [33]: > 100 µM (inactive)
- GI50 [34]: 80.7 µM (inactive)
- GI50 [35]: > 100 µM (inactive)
- GI50 [36]: > 100 µM (inactive)
- GI50 [37]: > 100 µM (inactive)
- GI50 [38]: > 100 µM (inactive)
- GI50 [39]: > 100 µM (inactive)
- GI50 [40]: > 100 µM (inactive)
- GI50 [41]: > 100 µM (inactive)
- GI50 [42]: > 100 µM (inactive)
- GI50 [43]: 19.1 µM (inactive)
- GI50 [44]: > 100 µM (inactive)
- GI50 [45]: > 100 µM (inactive)
- GI50 [46]: > 100 µM (inactive)
- GI50 [47]: > 100 µM (inactive)
- GI50 [48]: > 100 µM (inactive)
- GI50 [49]: 15 µM (inactive)
- GI50 [50]: > 100 µM (inactive)
- GI50 [51]: > 100 µM (inactive)
- GI50 [52]: > 100 µM (inactive)
- GI50 [53]: > 100 µM (inactive)
- GI50 [54]: > 100 µM (inactive)
- GI50 [55]: 7.08 µM (inactive)

Structure (SMILES): CO/N=C(/C(=O)N(C(=O)/C(=N/OC)c1csc(NC(c2ccccc2)(c2ccccc2)c2ccccc2)n1)n1cnn(CC(=O)OC(C)(C)C)c1=O)c1csc(NC(c2ccccc2)(c2ccccc2)c2ccccc2)n1
- GI50 [1]: > 10 µM (inactive)
- GI50 [2]: > 10 µM (inactive)
- GI50 [3]: > 10 µM (inactive)
- GI50 [4]: > 10 µM (inactive)
- GI50 [5]: > 10 µM (inactive)
- GI50 [6]: > 10 µM (inactive)
- GI50 [56]: 2.31 µM (inactive)
- GI50 [7]: > 10 µM (inactive)
- GI50 [8]: > 10 µM (inactive)
- GI50 [9]: > 10 µM (inactive)
- GI50 [10]: > 10 µM (inactive)
- GI50 [11]: > 10 µM (inactive)
- GI50 [12]: > 10 µM (inactive)
- GI50 [13]: > 10 µM (inactive)
- GI50 [14]: > 10 µM (inactive)
- GI50 [15]: > 10 µM (inactive)
- GI50 [16]: > 10 µM (inactive)
- GI50 [17]: > 10 µM (inactive)
- GI50 [18]: > 10 µM (inactive)
- GI50 [19]: > 10 µM (inactive)
- GI50 [20]: > 10 µM (inactive)
- GI50 [21]: 2.16 µM (inactive)
- GI50 [22]: > 10 µM (inactive)
- GI50 [23]: > 10 µM (inactive)
- GI50 [24]: > 10 µM (inactive)
- GI50 [25]: > 10 µM (inactive)
- GI50 [26]: > 10 µM (inactive)
- GI50 [27]: > 10 µM (inactive)
- GI50 [28]: > 10 µM (inactive)
- GI50 [29]: > 10 µM
- GI50 [30]: > 10 µM (inactive)
- GI50 [31]: > 10 µM (inactive)
- GI50 [32]: > 10 µM (inactive)
- GI50 [33]: > 10 µM (inactive)
- GI50 [35]: > 10 µM (inactive)
- GI50 [57]: > 10 µM (inactive)
- GI50 [36]: > 10 µM (inactive)
- GI50 [37]: > 10 µM (inactive)
- GI50 [38]: > 10 µM (inactive)
- GI50 [39]: > 10 µM (inactive)
- GI50 [40]: > 10 µM (inactive)
- GI50 [41]: > 10 µM (inactive)
- GI50 [42]: 1.87 µM (inactive)
- GI50 [43]: > 10 µM (inactive)
- GI50 [44]: > 10 µM (inactive)
- GI50 [45]: > 10 µM (inactive)
- GI50 [46]: > 10 µM (inactive)
- GI50 [47]: > 10 µM (inactive)
- GI50 [48]: > 10 µM (inactive)
- GI50 [49]: > 10 µM (inactive)
- GI50 [50]: > 10 µM (inactive)
- GI50 [51]: 0.0139 µM (active)
- GI50 [52]: > 10 µM (inactive)
- GI50 [53]: > 10 µM (inactive)
- GI50 [58]: > 10 µM (inactive)
- GI50 [54]: > 10 µM (inactive)
- GI50 [55]: > 10 µM (inactive)

Structure (SMILES): Cc1c(C(=O)Nc2ccccc2)nnn1-c1ccnc2cc(C(F)(F)F)ccc12
- GI50 [1]: 28.6 µM (inactive)
- GI50 [2]: 40.8 µM (inactive)
- GI50 [3]: > 100 µM (inactive)
- GI50 [4]: 89.5 µM (inactive)
- GI50 [5]: 54.7 µM (inactive)
- GI50 [6]: 76.9 µM (inactive)
- GI50 [56]: > 100 µM (inactive)
- GI50 [7]: 56.5 µM (inactive)
- GI50 [8]: 34.7 µM (inactive)
- GI50 [9]: 38.1 µM (inactive)
- GI50 [10]: 57.4 µM (inactive)
- GI50 [11]: > 100 µM (inactive)
- GI50 [12]: 74 µM (inactive)
- GI50 [13]: > 100 µM (inactive)
- GI50 [14]: 64.7 µM (inactive)
- GI50 [15]: 82.8 µM (inactive)
- GI50 [16]: > 100 µM (inactive)
- GI50 [17]: 71.9 µM (inactive)
- GI50 [18]: 45.5 µM (inactive)
- GI50 [19]: 42.6 µM (inactive)
- GI50 [20]: 37 µM (inactive)
- GI50 [21]: > 100 µM (inactive)
- GI50 [22]: 50.8 µM (inactive)
- GI50 [23]: 41.6 µM (inactive)
- GI50 [24]: 39.4 µM (inactive)
- GI50 [25]: 35.3 µM (inactive)
- GI50 [26]: 67.1 µM (inactive)
- GI50 [27]: > 100 µM (inactive)
- GI50 [28]: 20.5 µM (inactive)
- GI50 [29]: 45.3 µM
- GI50 [30]: 37.5 µM (inactive)
- GI50 [31]: > 100 µM (inactive)
- GI50 [32]: 55 µM (inactive)
- GI50 [34]: 24.9 µM (inactive)
- GI50 [35]: 32.4 µM (inactive)
- GI50 [57]: 34.4 µM (inactive)
- GI50 [36]: 46.7 µM (inactive)
- GI50 [37]: 53.2 µM (inactive)
- GI50 [38]: 34.5 µM (inactive)
- GI50 [40]: 41.9 µM (inactive)
- GI50 [41]: 85.5 µM (inactive)
- GI50 [42]: 30.1 µM (inactive)
- GI50 [43]: 37.2 µM (inactive)
- GI50 [44]: 33.5 µM (inactive)
- GI50 [45]: 78.9 µM (inactive)
- GI50 [46]: 33.3 µM (inactive)
- GI50 [47]: 22.1 µM (inactive)
- GI50 [48]: 50.6 µM (inactive)
- GI50 [49]: 34 µM (inactive)
- GI50 [50]: 19.1 µM (inactive)
- GI50 [51]: 30.4 µM (inactive)
- GI50 [52]: 80.2 µM (inactive)
- GI50 [53]: 68.4 µM (inactive)
- GI50 [58]: > 100 µM (inactive)
- GI50 [54]: 49.3 µM (inactive)
- GI50 [55]: 35 µM (inactive)
